Data reported in US20130237609A1, “CELLULOSE DERIVATIVES FOR ENHANCING BIOAVAILABILITY OF FLAVONOIDS” (priority 2011, published 2013).
Converted amounts (≈) assume the structure as drawn. Where two headings read alike, the source gives them in different places.

Tests used:
[1] = with piperine as metabolic inhibitor, in humans; cited from earlier work
[2] = cited from earlier work
[3] = Curcumin stability in buffer (degradation plus crystallization), UV-Vis, no EtOH added; conditions: after 5 h, no EtOH dilution
[4] = Curcumin stability in buffer, UV-Vis after EtOH dilution; assay type: physicochemical
[5] = Curcumin release profile, pH 1.2 buffer; assay type: physicochemical; conditions: polymer label = amorphous blend of curcumin with that polymer
[6] = pH 7.4 buffer; cited from earlier work
[7] = formulated as nanocrystals, solid dispersion in HPMCAS, nanoemulsion (Onoue 2010); cited from earlier work
[8] = Contact angle of water on spin-coated films; assay type: physicochemical; conditions: Cur/polymer weight ratio, PVP samples: initial value
[9] = Curcumin release profile, pH 6.8 buffer; assay type: physicochemical; conditions: pH 6.8, UV-Vis
[10] = Curcumin stability in pH 7.4 buffer, HPLC after EtOH dilution; assay type: physicochemical; conditions: 24 h, room temperature, EtOH dilution before measurement
Procedure: […]. Samples were incubated at room temperature for indicated times. After incubation, the reaction mixtures were diluted by 1 mL of ethanol and the UV-Vis absorption of the diluted solution was measured; then the diluted solution was filtered through a 1 μm PVDF membrane filter, and the filtrate was analyzed by HP LC. HPLC was performed with an Agilent 1200 series liquid chromatograph equipped with a 1200 quaternary pump, a variable wavelength UV/Vis detector and an Eclipse XDB-C18 column (150×4.6 mm, 5 μm particle size) using the mixture of 40% THF, 60% water and 1% acetic acid (pH 3.0) as mobile phase.
(Wang 1997). Such chemical degradation is likely the result of retro-aldol reactions. (Priyadarsini 2009). […] This experiment differs from the literature report in that the inventors use ethanol to dilute the incubated aqueous curcumin solution just prior to measurement, to make sure that any crystallized curcumin is re-dissolved for detection. […]

COc1cc(/C=C/C(=O)CC(=O)/C=C/c2ccc(O)c(OC)c2)ccc1O [Curcumin, 1,7-bis(4-hydroxy-3-methoxyphenyl)-1,6-heptadiene-3,5-dione]
improvement of curcumin oral bioavailability [1]: up to 20 fold | Solubility [2]: 3 µg/mL (≈ 8.14 µM) | curcumin remained in solution ([3]; pH 6.8 buffer): ~44% | curcumin remained in solution ([3]; pH 7.4 buffer): around 40% | Cur degraded (UV-Vis) ([4]; pH 6.8, after 5 h, EtOH dilution): 7% | Cur degraded (UV-Vis) ([4]; pH 7.4, after 5 h, EtOH dilution): 16% | Cur degraded (UV-Vis) ([4]; pH 7.4 buffer, 24 h, EtOH dilution before measurement): 33% | dissolution [5]: virtually no dissolution | half-life of curcumin [6]: 5.4 min | improvement of oral bioavailability of curcumin [7]: 9-16 fold | contact angle of water on film [8]: 102 ° | Cur release concentration [9]: below the UV/Vis detection limit | curcumin degraded (HPLC, curcumin peak RT 6.0 min) [10]: 36%

O=c1oc2c(O)c(O)cc3c(=O)oc4c(O)c(O)cc1c4c23 [Ellagic Acid]
Solubility [2]: 10 µg/mL (≈ 33.1 µM)

O=c1c(O)c(-c2ccc(O)c(O)c2)oc2cc(O)cc(O)c12 [Quercetin]
Solubility [2]: 0.4 µg/mL (≈ 1.32 µM)

Oc1ccc(C=Cc2cc(O)cc(O)c2)cc1 [Resveratrol]
Solubility [2]: <0.1 µg/mL

COC1=CC(=O)C[C@@H](C)[C@]12Oc1c(Cl)c(OC)cc(OC)c1C2=O [griseofulvin]
Solubility (physchem; solubility of crystalline griseofulvin): 12 µg/mL (≈ 34 µM) | Solubility (physchem; solubility of griseofulvin in the polymer matrix): ≤ 30000 µg/mL
